What was measured:
[1] = test system: Wildtype and Sam68 knockout cells; details: hydrogen peroxide 100 μM, 24 hours
Description: Cell death via the intrinsic pathway of apoptosis can be induced by genotoxic and oxidative stress (Roos and Kaina, 2006. Trends in molecular medicine 12, 440-450.) (Dumont et al., 1999. Oncogene 18, 747-757.).

[2] = test system: NF-κB activation in Sam68 knockout fibroblast cells; assay: IL-1β induced NF-κB activation (IκBα degradation, p65 nuclear translocation); type: cell-based, mouse; details: 100 ng/ml IL-1 beta
Protocol: Wild type control and Sam68 knockout fibroblast cells were treated with TNF (Recombinant human TNFα from Peprotech), and IκBα degradation and nuclear translocation of NF-κB protein were used to monitor the activation of their NF-κB pathway (IκBα antibody was from Santa Cruz Biotechnology; assessment of NF-κB nuclear translocation, cytoplasmic and nuclear extracts were prepared as described by Schreiber et al., 1989).
The Sam68 knockout fibroblast cells were treated with IL-1β (R&D Systems), another proinflammatory cytokine. […] Thus, the NF-κB activation pathway is functional in these Sam68 knockout cells, while Sam68 activity is specifically related to TNF signaling.

Compound | death induction, cell morphology [1] | NF-κB activation (IκBα degradation and nuclear translocation of p65) [2]
OO [hydrogen peroxide] | caused death induction in both wildtype and Sam68 knockout cells | 
IL-1β: proinflammatory cytokine, recombinant human IL-1 beta (R&D Systems) |  | remained intact

Reference: patent publication US8598137B2, “Use of SAM68 for modulating signaling through the TNF receptor” (California Institute of Technology, priority 2010, dated 2013)
